Measurements published in patent publication US20250074892A1, “CARBONYL BRIDGED HETEROCYCLIC COMPOUND, AND COMPOSITION AND APPLICATION THEREOF” (BEIJING SCITECH-MQ PHARMACEUTICALS LIMITED, priority 2022, published 2025).
Where two headings read alike, the source gives them in different places.

Assay: Mouse PK&BBB (pharmacokinetics and brain penetration)
Assay type: in vivo, CD-1 mice
Experimental: In this assay, the pharmacokinetic characteristics and ability to penetrate the blood-brain barrier of the compounds of the present application were assayed after administration of some of the compounds of the present application to SD rats, CD-1 mice or beagle dogs by single oral administration and intravenous injection.
1. Intravenous (IV) injection group: an appropriate amount of the assay compound was weighed, and completely dissolved in an appropriate volume of vehicle. The mixture was stirred, vortexed and/or sonicated. Once a solution was obtained, the vehicle was gradually added to a final volume to reach the target concentration. The solution was vortexed, and sonicated to obtain a homogeneous solution. The solution was filtered through a […] PVDF membrane.
2. Oral (PO) group: an appropriate amount of the assay compound was weighed, and completely dissolved in an appropriate volume of vehicle. The mixture was stirred, vortexed and/or sonicated. Once a solution was obtained, the vehicle was gradually added to a final volume to reach the target concentration. The solution was vortexed, and sonicated to obtain a homogeneous solution.
Meanwhile, the IV group was not fasted and the PO group was fasted overnight (>12 hrs) and given food 2 hrs after drug administration. All animals had free access to water. The dosing regimen and pharmacokinetic sampling regimen are given in Table 10 and Table 11 below, respectively.
Mice were administered according to the above protocol, and blood and brain tissue samples were collected and processed at predetermined time points (collection and processing were performed according to conventional methods in the art).
The brain was weighed and homogenized by adding 4 times of ultrapure water. Six times volume of acetonitrile was added respectively to the whole blood samples and brain homogenate (20 times volume of acetonitrile was added to the whole blood sample of mouse PK). The mixture was vortexed for 1 min and then centrifuged at 4° C., 4500 rpm for 15 min. According to the instrument response, the supernatant was diluted with diluent and the sample was analyzed by LC/MS.
Pharmacokinetic parameters were calculated using WinNonlin software. The following pharmacokinetic parameters were calculated if appropriate plasma/whole blood drug concentration-time data were available: CL (clearance); Vd (apparent volume of distribution); T1/2 (elimination half-life time); Cmax (peak concentration); Tmax (time to peak); AUC (area under plasma drug concentration-time curve); MRT (mean retention time); F % (bioavailability).

[1] = CD-1, mouse, whole blood, iv, 2 mg/kg, IV 2 mg/kg, read-out: Blood drug concentration
[2] = CD-1, mouse, whole blood, po, 20 mg/kg, PO 20 mg/kg, read-out: Blood drug concentration

For `O=C(C1CCN(c2cc(-c3cc(OCCCO)ccc3F)ccn2)CC1)N1N=CC[C@H]1c1cc(F)cc(F)c1` (racemic) [Example 40], the Kp at 2 h (CD-1, brain / whole blood, PO 20 mg/kg, 2 h after administration, read-out: Brain/blood ratio) was 1.85, the concentration at 2 h (CD-1, mouse, brain, po, 20 mg/kg, PO 20 mg/kg, 2 h after administration, read-out: Brain concentration) was 244 ng/g and the concentration at 0 h [1] was 0 ng/mL. It also gave a concentration at 0.083 h (CD-1, mouse, whole blood, iv, 2 mg/kg, IV 2 mg/kg, 0.083 hr, read-out: Blood drug concentration) of 632 ± 86 ng/mL, a concentration at 0.25 h [1] of 323 ± 81 ng/mL and a concentration at 0.5 h [1] of 150 ± 53 ng/mL. For the same compound, the concentration at 1 h [1] was 60.7 ± 28.5 ng/mL, the concentration at 2 h (CD-1, mouse, whole blood, iv, 2 mg/kg, IV 2 mg/kg, 2 hr, read-out: Blood drug concentration) was 12.3 ± 8.4 ng/mL and the concentration at 4 h [1] was 1.77 ± 1.12 ng/mL. It also gave a concentration at 7 hr [1] of 0.854 ng/mL, a concentration at 0 h [2] of 0 ng/mL and a concentration at 0.25 h [2] of 284 ± 26 ng/mL. The concentration at 0.5 h [2] was 405 ± 46 ng/mL, the concentration at 1 h [2] was 399 ± 77 ng/mL and the concentration at 2 h (CD-1, mouse, whole blood, po, 20 mg/kg, PO 20 mg/kg, 2 hr, read-out: Blood drug concentration) was 163 ± 2 ng/mL. For the same compound, the concentration at 4 h [2] was 34.9 ± 19 ng/mL, the concentration at 7 hr [2] was 4.85 ± 3.83 ng/mL and the concentration at 2 h (CD-1, mouse, whole blood, po, 20 mg/kg, PO 20 mg/kg, whole blood, 2 h after administration, read-out: Blood drug concentration) was 132 ng/mL. The AUC(0-inf) (CD-1, whole blood, IV 2 mg/kg) was 308 ± 82 ng·h/mL, the AUC(0-t) (CD-1, whole blood, IV 2 mg/kg) was 307 ± 82 ng·h/mL and the Vd (CD-1, whole blood, IV 2 mg/kg) was 6.97 ± 1.13 L/kg. The half-life (CD-1, whole blood, IV 2 mg/kg) was 45.3 ± 17.9 min, the clearance (CD-1, whole blood, IV 2 mg/kg, read-out: Cl—obs) was 114 ± 30.5 mL/min/kg and the AUC(0-inf) (CD-1, whole blood, PO 20 mg/kg) was 869 ± 57 ng·h/mL. The AUC(0-t) (CD-1, whole blood, PO 20 mg/kg) was 861 ± 54 ng·h/mL, the Cmax (CD-1, whole blood, PO 20 mg/kg) was 421 ± 64 ng/mL and the Tmax (CD-1, whole blood, PO 20 mg/kg) was 50 ± 17.3 min. It also gave a half-life (CD-1, whole blood, PO 20 mg/kg) of 58 ± 12.5 min and a bioavailability (CD-1, whole blood, PO 20 mg/kg vs IV 2 mg/kg) of 28.2 ± 1.9%.
